Assay results as given in patent publication US20180028526A1, “NALMEFENE FOR REDUCTION OF ALCOHOL CONSUMPTION IN SPECIFIC TARGET POPULATIONS” (H. Lundbeck A/S, priority 2012, published 2018).

Assays:
[1] = test system: alcohol dependence; details: 20 mg taken when the patient experienced a craving for alcohol; Karhuvaara et al. 2007; cited from earlier work
[2] = test system: alcohol dependence; details: 20 to 80 mg daily oral dosing; double-blind, placebo-controlled; Mason et al. 1999; cited from earlier work
[3] = test system: alcohol dependence; details: 5, 20 and 40 mg daily doses; Anton et al. 2004; cited from earlier work
[4] = test system: patients with alcohol dependence; test: Studies 12014A, 12023A and 12013A taken together (statements on all three studies); format: in vivo, human; details: for Difference between nalmefene and placebo in HDDs and TAC, compared with total study population: all three studies
Text: The efficacy of nalmefene in the reduction of alcohol consumption in patients with alcohol dependence (DSM-IV) has been evaluated in two efficacy studies (Study 12014A and Study 12023A) and one safety study (Study 12013A) as described in the examples. All three studies were randomized, double blind, parallel-group and placebo-controlled.
The studies included outpatients, aged […], with a primary diagnosis of alcohol dependence. A patient was eligible for participation in the study if, in the 4 weeks preceding the Screening Visit (Baseline period), he/she had >6 HDDs, at least a medium DRL (calculated as mean daily alcohol consumption in g/day i.e. >40 g/day for men and >20 g/day for women calculated as mean daily alcohol consumption over the 4 week period preceding the screening visit), and ≦14 consecutive abstinent days. The timeline followback (TLFB) method was used to obtain estimates of the patient's daily drinking.
At the initial visit (screening visit), the patients' clinical status, social situation, and alcohol consumption pattern were evaluated. After a 1- to 2-week observation period the drinking risk level was re-assessed by calculating mean daily alcohol consumption in g/day over the 1- to 2-week observation period, and treatment with nalmefene was initiated together with counseling with focus on motivating the patients to adhere to the treatment and to change their drinking behavior.
The efficacy of nalmefene was measured using two co-primary endpoints: the change in the monthly number of heavy drinking days (HDDs) and the change in the mean daily total alcohol consumption (TAC) per month (=28 days).
The efficacy of nalmefene on the reduction of alcohol consumption in patients with alcohol dependence (DSM-IV) was evaluated in two efficacy studies (Study 12014A and Study 12023A). Both studies were randomised, double blind, two-parallel group, placebo controlled, and after 6 months of treatment, patients receiving nalmefene were re-randomised to receive either placebo or nalmefene in a 1 month run out period. The efficacy of nalmefene was also evaluated in a randomised, double blind, two parallel group, placebo controlled 1 year safety study (Study 12013A). The studies included 1941 patients, 1144 of whom were treated with nalmefene 18 mg in an as-needed dosing regimen.
The efficacy of nalmefene was measured using two co-primary endpoints: the change in the monthly number of heavy drinking days (HDDs) and the change in the mean daily total alcohol consumption (TAC) per month (=28 days). A HDD was defined as a day with a consumption ≧60 g alcohol for men and 40 g for women. The change in HDD and TAC over time in patients treated with nalmefene or placebo is furthermore reflected in FIGS. 1a and 1b-12a and 12b.

C=C1CC[C@@]2(O)[C@H]3Cc4ccc(O)c5c4[C@@]2(CCN3CC2CC2)[C@H]1O5 [nalmefene, 17-(cyclopropylmethyl)-4,5-alpha-epoxy-6-methylenemorphinan-3,14-diol]
Effect over placebo in the management of alcohol dependence [1]: good effect
Effect in the management of alcohol dependence [2]: good effect
Superiority over placebo in the management of alcohol dependence [3]: no evidence of superiority
Difference between nalmefene and placebo in HDDs and TAC, compared with total study population ([4]; patients excluding ERs): more pronounced
Difference between nalmefene and placebo in HDDs and TAC, compared with total study population ([4]; patients with High DRL at baseline): more pronounced
Difference between nalmefene and placebo in HDDs and TAC, compared with total study population ([4]; patients with High DRL at baseline and randomization): more pronounced
Reducing the number of HDDs and TAC versus placebo ([4]; month 6, two 6 month efficacy studies and 12 month safety study, total study population): superior to placebo
